# Measurements reported in patent US6307014A (priority 1998, dated 2001).
# Tests used:
# [1] = test system: cholinergic synapse of the buccal ganglion; format: cell-based, Aplysia californica
# [2] = test system: postsynaptic acetylcholine (ACh) receptors; format: cell-based, Aplysia californica
# [3] = test system: young mice; conditions: mouse, in vivo
# [4] = test system: presynaptic Ca2+ current; format: cell-based, Aplysia californica
substance,measurement,setting,value
Gla Cys Cys Gla Asp Gly BrW Cys Cys Thr Ala Ala OHP [P11.1],"amplitude of the postsynaptic response (IPSC) evoked by a presynaptic action potential, % of the initial value",[1],40%
same,reduction in the number of released quanta,[1],60%
same,distribution of mean amplitudes of miniature postsynaptic currents with respect to mean amplitude of the LDIPSC,[2],identical to control values
same,effect on postsynaptic acetylcholine (ACh) receptors,[2],no effect
same,dampening of the action potential,[3],about 50%
same,"presynaptic Ca2+ current, % of the control value",[4],70%
